# “And” between values parts separate entries of the source, which are not always exact repeats. Equal values may be shown once. Read-outs that look alike come from different tables or passages of the source.
# How the values were obtained:
# [1] = tested on: CYP3A4
# Source text: The resulting fitting equation was used to calculate predicted in vivo AUC change for each compound. […] Prediction accuracy using HepatoCells was also compared with prediction accuracy using primary human hepatocytes.
# [2] = Solubility at test concentrations in induction assay; assay type: physicochemical; conditions: at 33 μM and 100 μM
# Procedure: Only curve fitting with correlation coefficient (R^2) > 0.85 is accepted. At high concentrations for some compounds, if toxicity or insolubility becomes obvious, such data are excluded from curve fitting. Following the same approach as described by [Zhang et al. (2014)] and [Fahmi and Ripp (2010)], for data sets that show no apparent plateau, the observed maximum fold increase is accepted as Emax to avoid extrapolating too much above the experimental values and EC50 is calculated accordingly from the fitting curve.
# [3] = tested on: CYP3A4; conditions: for RIS Based on Enzyme Activity: RIS = (Emax × Cmax,ub)/(EC50 + Cmax,ub)
# [4] = tested on: CYP3A4; conditions: cited from earlier work
# [5] = tested on: CYP3A4 mRNA; assay: Concentration-dependent CYP3A4 mRNA induction in HepatoCells; conditions: for Emax / EC50: CYP3A4 mRNA fold increase, NI = no induction observed at tested concentration; for Emax: 3 consecutive days treatment, quinidine: only observed maximum fold induction; for RIS Based on mRNA: RIS = (Emax × Cmax,ub)/(EC50 + Cmax,ub); for EC50: human, nominal concentrations; for RIS Based on mRNA, Mean: mean of lots 2B, 3A, 3B; for induction response: readout not specified
# Procedure: (§1) Cryopreserved HepatoCells were thawed quickly in a 37°C water bath and transferred to Corning Culture Medium for HepatoCells supplemented with 10% fetal bovine serum and Pen/Strep (plating medium). After the cryo-freezing media was removed by centrifugation at 150g for 10 minutes, the cell pellet was resuspended in plating media and cell count was performed with trypan blue. Cells were then seeded in a Corning BioCoat Collagen I–coated plate (500,000 cells/well in 24-well plate or 80,000 cells/well in 96-well plate), and plates were incubated in a 37°C incubator with 5% CO2. […] Cells were then returned to the incubator for overnight culture.
# (§2) Stock solutions of test compounds were prepared by dissolving each compound in DMSO and serially diluting the solutions in DMSO. Final working solutions were freshly prepared daily by diluting the 1000× stock solutions in culture medium. Three lots of HepatoCells culture were treated with eight concentrations of test compounds. Both enzymatic activity (testosterone 6β hydroxylase activity) and mRNA expression were measured as endpoints using LC-MS/MS and real-time reverse-transcription polymerase chain reaction, respectively.
# [6] = target: T1, human CAR (Homo sapiens, UniProt Q14994); assay: Ad-EYFP-hCAR nuclear translocation in HepatoCells; assay type: cell-based; conditions: 1 mM phenobarbital for 12 hours
# T1 construct: expressed in transfected cells; host or cells: primary human hepatocytes (Corning Gentest inventory), adenoviral transduction
# T1 sequence (Q14994 1-352): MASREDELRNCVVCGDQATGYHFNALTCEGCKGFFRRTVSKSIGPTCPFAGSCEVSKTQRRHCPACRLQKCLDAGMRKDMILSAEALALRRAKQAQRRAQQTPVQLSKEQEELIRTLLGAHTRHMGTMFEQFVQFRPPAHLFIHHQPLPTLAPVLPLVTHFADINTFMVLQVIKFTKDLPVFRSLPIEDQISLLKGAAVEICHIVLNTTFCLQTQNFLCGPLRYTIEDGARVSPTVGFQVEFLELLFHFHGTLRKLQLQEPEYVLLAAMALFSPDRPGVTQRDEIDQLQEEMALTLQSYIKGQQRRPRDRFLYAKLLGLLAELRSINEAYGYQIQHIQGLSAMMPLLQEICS
# Procedure: Previous studies have used adenoviral-enhanced yellow fluorescent protein-tagged-human CAR (Ad-EYFP-hCAR) as a tool to visualize nuclear translocation of hCAR from cytoplasm in primary human hepatocytes upon exposure to phenobarbital ([Li et al., 2009]). […] The same Ad-EYFP-hCAR fusion protein model system was used to study CAR nuclear translocation in HepatoCells. A 3-day culture of HepatoCells was transduced with Ad-EYFP-hCAR for 24 hours. Infected HepatoCells were then treated with 1 mM phenobarbital for 12 hours.
# [7] = target: T1, human CAR; assay: Ad-EYFP-hCAR nuclear translocation in primary human hepatocytes; assay type: cell-based; conditions: phenobarbital treatment
# [8] = tested on: CYP3A4 mRNA; conditions: for RIS Based on mRNA, Mean: human
# Procedure: as §1, §2
# [9] = tested on: CYP3A4 mRNA; assay: in vitro; conditions: human
# Procedure: as §1, §2
# [10] = tested on: CYP2B6; assay: CYP2B6 induction response to prototypical inducer, enzyme activity, HepatoCells; conditions: human, probe bupropion 250 µM
# Procedure: as §1
# [11] = tested on: CYP2B6; assay: CYP2B6 induction response to prototypical inducer, enzyme activity, primary human hepatocytes; conditions: cryopreserved primary human hepatocytes, probe bupropion 250 µM
# [12] = tested on: CYP3A4; conditions: hepatocytes; cited from earlier work
# [13] = design: method as in Zhang et al., 2014; conditions: from the literature; ref Zhang et al., 2014; cited from earlier work
# [14] = tested on: PXR; design: method as in Luo et al. (2002); conditions: probenecid concentration up to 50 μM; ref Luo et al. (2002); cited from earlier work
# [15] = tested on: CYP3A4; design: method as in Luo et al. (2002); conditions: probenecid concentration up to 20 μM; ref Luo et al. (2002); cited from earlier work
# [16] = Lot 2B HepatoCells, RIS calibration curve
# [17] = Lot 3A HepatoCells, RIS calibration curve
# [18] = Lot 3B HepatoCells, RIS calibration curve
# [19] = clinical DDI, decrease in AUC of victim drug (midazolam or nonmidazolam), ref Zhang et al., 2014
SMILES,"Predicted % AUC Change Based on Activity [1, 16] [%]","Predicted % AUC Change Based on mRNA [1, 16] [%]","Predicted % AUC Change Based on Activity [1, 17] [%]","Predicted % AUC Change Based on mRNA [1, 17] [%]","Predicted % AUC Change Based on Activity [1, 18] [%]","Predicted % AUC Change Based on mRNA [1, 18] [%]",RIS Based on Enzyme Activity ([3]; Lot 2B),RIS Based on Enzyme Activity ([3]; Lot 3A),RIS Based on Enzyme Activity ([3]; Lot 3B),"RIS Based on Enzyme Activity, Mean ([3]; mean of lots 2B, 3A, 3B)","Observed % AUC Change [4, 19] [%]",Emax ([5]; Lot 2B HepatoCells) [Fold],RIS Based on mRNA ([5]; Lot 2B),Emax ([5]; Lot 3A HepatoCells) [Fold],RIS Based on mRNA ([5]; Lot 3A),Emax ([5]; Lot 3B HepatoCells) [Fold],RIS Based on mRNA ([5]; Lot 3B),"EC50 ([5]; EC50, Lot 2B HepatoCells) [µM]","EC50 ([5]; EC50, Lot 3A HepatoCells) [µM]","EC50 ([5]; EC50, Lot 3B HepatoCells) [µM]",further results
CCc1ccc(CCOc2ccc(CC3SC(=O)NC3=O)cc2)nc1 (stereo not shown) [Pioglitazone],17,36,23,35,34,29,0.12,0.20,0.28,0.2,26,33,0.28,31,0.37,15,0.21,3.3,2.3,2,"Predicted AUC change using enzyme activity data (range of lots) ([1]; three lots of HepatoCells): 17–34%; Predicted AUC change using mRNA data (range of lots) ([1]; three lots of HepatoCells): 29–36%; solubility [2]: insoluble; RIS Based on mRNA, Mean [5]: 0.29"
CCC1(c2ccccc2)C(=O)NC(=O)NC1=O [Phenobarbital],–,–,–,–,–,–,–,–,–,–,–,–,–,–,–,–,–,–,–,–,"Predicted % AUC Change Based on Activity [1]: 96% and 98%; Predicted % AUC Change Based on mRNA [1]: 98% and 95%; Predicted AUC change using HepatoCells (range of lots) [1]: 95–98%; EYFP-hCAR localisation after treatment [6]: relocates to the cell nuclei; EYFP-hCAR localisation after treatment [7]: relocates to the cell nuclei; RIS Based on mRNA, Mean [8]: 4.3; RIS Based on Enzyme Activity, Mean ([3]; human): 3.7; EC50 [9]: 775 µM; Observed % AUC Change ([4]; human, in vivo): 61%; fold induction at 72 h, 1 mM [10]: 5; fold induction at 72 h, 1 mM [11]: 7.8"
Clc1ccccc1C(c1ccccc1)(c1ccccc1)n1ccnc1 [Clotrimazole],–,–,–,–,–,–,–,–,–,–,–,–,–,–,–,–,–,–,–,–,"Predicted % AUC Change Based on Activity [1]: 0%; Predicted % AUC Change Based on mRNA [1]: 0.00%; CYP3A4 mRNA expression induction response (in words) [8]: induced an increase; RIS Based on mRNA, Mean [8]: 0.0044; CYP3A4 enzyme activity induction response (in words) [3]: did not increase; Observed % AUC Change ([4]; human, in vivo): 9.7%; Emax, CYP3A4 enzyme activity [12]: 3.1- to 3.3 fold"
CCCN(CCC)S(=O)(=O)c1ccc(C(=O)O)cc1 [Probenecid],96,98,94,98,83,95,1.5,1.0,0.8,1.1,20,25,2.8,26,3.2,22,2.4,187,176,195,"Emax, enzyme activity (all lots) ([3]; HepatoCells): 5.9- to 11.9 fold; unbound Cmax [13]: 28 µM; activation of PXR [14]: no activation of PXR; induction of CYP3A4 transcript or enzyme activity [15]: no activation of PXR or induction of CYP3A4 transcript or enzyme activity; Emax, mRNA expression (all lots) ([5]; HepatoCells): more than 20 fold; induction response ([5]; HepatoCells, probenecid at 0.1–11 μM, significant = >twofold): did not exhibit significant induction response; induction response ([5]; HepatoCells, probenecid concentration higher than 33 μM): strong induction; RIS Based on mRNA, Mean [5]: 2.8"

# — PMC5267519, “Evaluation of a Novel Renewable Hepatic Cell Model for Prediction of Clinical CYP3A4 Induction Using a Correlation-Based Relative Induction Score Approach” (Drug Metabolism and Disposition, 2017)
